Laboratory results as given in US5994365A, “Substituted diazaanthracene compounds having pharmaceutical utility” (Diazans Limited, priority 1998, dated 1999).

How the values were obtained:
[1] = system: S. aureus ATCC 25923; assay: Microbroth dilution assay of antimicrobial susceptibility (MIC); format: cell-based, Staphylococcus aureus; details: microdilution, CAMHB, 37° C., 18 hrs
Procedure: It is described below, using E. coli ATCC® 25922, S. aureus ATCC® 25923, and P. aeruginosa ATCC® 27853. Prepare 0.0128 g DAA in 10 mL dH2 O (or 95% EtOH, methanol or DMSO if H2 O insoluble)=1280 μg/mL (stock solution). Dilute DAA stock solution 1:10 with CAMHB (Cation-Adjusted Mueller Hinton Broth): 0.5 mL DAA stock solution+4.5 mL CAMHB=128 μg/mL (DAA working solution). Pipette 100 μl of sterile CAMHB per well into columns 2-12 of rows A-G using Eppendorf repeater pipette. Pipette 100 μl per well of sterile-filtered DAA working solution into columns 1 and 2 of rows A, C, E, G using Jensen electric pipette. Mix and transfer 100 μl from column 2 to 3 of rows A, C, E, G using Jensen pipette. Repeat to column 12 then discard 100 μl from column 12. Rows B, D and F are positive growth control lanes for each organism and contain only CAMHB and the organism--no DAA. Row H is the media additive control lane, if necessary (e.g. MeOH, EtOH, DMSO etc.). The concentration of the media additive is obtained by doing a 1:10 dilution of the additive with CAMHB (0.5 mL additive+4.5 mL CAMHB). Row G is considered to be "negative growth control" and is loaded with only CAMHB and the DAA. Inoculate 0.5 mL TSB (Trypticase Soy Broth) tubes with 3 single colonies each of E. coli, S. aureus, and P. Aeruginosa from TSA plates using sterile needle. Incubate @ 37° C. for 4-6 hr. Measure out 100 mL CAMHB using the sterile 100 mL volumetric flask. Pour the excess into a sterile reagent reservoir. Pipette 0.5 mL and discard, leaving 99.5 mL in each of the 3-Erlenmeyer flasks. Set aside. Use the excess CAMHB for the 1:10 dilution of inoculum: 0.5 mL inoculum+4.5 mL CAMHB. Perform a 1:200 dilution of inoculum: 0.5 mL of 1:10 diluted inoculum+99.5 mL CAMHB from previous step. Pipette 100 μl (using Eppendorf repeater pipette) E. coli into each well in columns 1-12 of rows A and B and columns 1-4 of row H (if media additive control lane necessary). Pipette 100 μl P. aeruginosa into each well in columns 1-12 of rows C and D and columns 5-8 of row H (if media additive control lane is necessary). Pipette 100 μl S. aureus into each well in columns 1-12 of rows E and F and columns 9-12 of row H (if media additive control lane is necessary). Incubate microtiter plates @ 37° C. for 18 hrs. The lowest concentration of antimicrobial agent that results in significant inhibition of visible growth represents the MIC (Minimal Inhibitory Concentration).

[2] = system: T. glabrata ATCC 90030; assay: In vitro antifungal susceptibility assay adapted from NCCLS (MIC); format: cell-based, Torulopsis glabrata; details: RPMI-1640
Procedure: Compounds of the invention also display antifungal activities. […] Using C. albicans ATCC® 90028, C. neoformans ATCC® 90112 and T. glabrata ATCC® 90030, the protocol is performed as follows:
Prepare 0.0128 g DAA in 10 mL dH2 O (or other if H2 O insoluble)=1280 μg/mL (stock solution). Dilute DAA stock solution 1:10 with RPMI-1640: 0.5 mL DAA stock solution+4.5 mL RPMI-1640=128 μg/mL (DAA working solution).
Inoculate rows A-H, columns 2-12 with 100 μl of RPMI-1640 using Eppendorf repeater pipette. Inoculate rows A-C columns 1 and 2 with 100 μl of 1st antibiotic (i.e. DAA-1) using electronic pipette. Inoculate rows E-G columns 1 and 2 with 100 μl of 2nd antibiotic (i.e. DAA-2) using electronic pipette. […] Plate is now ready for fungal inocula, which involves pipetting 100 μl of the inocula into all wells in rows A-C columns 1-12 and rows E-G columns 1-12. […]
Five colonies greater than 1 mm in diameter are suspended in a spectrophotometer cuvette containing 5 mL of sterile, 0.85% saline (colonies are obtained from 24 hrs. old Candida and Torulopsis cultures, while Cryptococcus colonies are chosen from 48 hrs. old cultures). Spectrophotometer is set to read % transmission at a wavelength of 530 nm, and is standardized using two cuvettes. […] Fungal inoculum is now prepared and ready to be introduced to microplates. […]

[3] = Precipitation of the dimer on dilution with Mueller-Hinton broth; format: physicochemical; details: resuspended upon mixing
Procedure: The dimer product of Example 15 was obtained in powder form. A stock solution of 1280 mg/L of the dimer in dimethylsulfoxide (DMSO) was prepared and stored at room temperature in a foil-wrapped screw-capped tube (10 ml). Subsequent dilutions were prepared using cation-adjusted Mueller-Hinton broth (50 mg/L Mg). […] It was resuspended upon mixing each time an aliquot was taken from the solution.

10,10'-bis(3,6-dimethyl-5,10-dihydro-1,8-diazaanthracen-5-one) and 5,5'-bis(3,6-dimethyl-5,10-dihydro-1,8-diazaanthracen-10-one) [Example 15]
MIC [1]: 0.0625 µg/mL | MIC [2]: 16 µg/mL | precipitation ([3]; at 128 mg/L in MHB): Some precipitation occurred at 128 mg/L | precipitation upon dilution with MH broth ([3]; from 1280 mg/L DMSO stock, after sitting for short periods): some precipitation upon dilution with MH broth
